What was measured:
[1] = test system: PSA specific monoclonal antibody 735; experiment: Surface plasmon resonance competition experiment (BIAcore 3000); format: binding; conditions: compared to antibody not mixed with tegaserod; antibody 10 nM pre-incubated with 1-30 µM compound; Figure 1B
Experimental: The running buffer was phosphate-buffered saline (PBS, pH 7.4). PSA mimicking peptide coupled to catalase was covalently immobilized to CM5 sensor chips (carboxymethyl dextran; GE Healthcare Europe GmbH) via primary amino groups, using standard coupling protocols (Karlsson et al. (1991); J. Immunol. Methods 145 (1-2): 229-240. In brief, the sensor surface was activated by a 7-min pulse of 0.2 M N-ethyl-N-(3-dimethylaminopropyl) carbodiimide and 50 mM N-hydroxysuccinimide. The PSA peptide solution (10 nM in 10 mM sodium acetate, pH 5.2) was then injected for 5-10 min. Ethanolamine (1 M, pH 8.5) was used to block remaining activated carboxyl groups. Ligand densities of 100-150 fmol/mm^2 were reached. Immobilized control peptide (10 nM PSA scrambled peptide coupled to catalase) was used as a reference surface. […] The data were analyzed using the BIAevaluation 3.0 software. All sensorgrams were corrected for background and bulk refractive index by subtraction of the reference.
To confirm that tegaserod binds specifically to antibody 735, a competition experiment was performed. First, the PSA specific monoclonal antibody 735 (10 nM) was pre-incubated for 1 h at room temperature with different molar concentrations (1, 2, 5, 8, 15 and 30 µM) of tegaserod or control compound. Then the antibody/organic compound solutions were injected ([…]) to the PSA peptide-coupled chip. […]

[2] = test system: cerebellar granule neurons (cGNs); experiment: In vitro neurite outgrowth of cerebellar granule neurons; format: cell-based, C57BL/6J mice; conditions: compared to control; Figure 2C, D
Experimental: Primary cultures of cerebellar neurons or Schwann cells were prepared from cerebellum or dorsal root ganglia of 7-day-old C57BL/6J mice as described in Mehanna et al. (2009), Brain, 132 (Pt 6): 1449-62 and Loers et al. (2005), J. Neurochem., 92(6): 1463-76. Motoneurons were prepared from E14 C57BL/6J mice as described in Simova et al. (2006), Ann. Neurol., 60(4): 430-437. In brief, 48-well plates were coated with 0.01% poly-L-lysine (PLL) or poly-L-ornithine (PLO) overnight at 4°C, washed twice with water and air-dried. Directly before use, plates were washed twice with PBS, and Schwann cells, cerebellar neurons (PLL) or motoneurons (PLO) were seeded at a density of 1.25 x 10^4 (Schwann cells and motoneurons) or 2.5 x 10^4 cells (cerebellar neurons) per well in 250 µl of corresponding serum-free culture medium. Soluble organic compounds were added to the culture 1 h after seeding in increasing concentrations. After maintenance for 24 h at 37°C, cells were fixed with 2.5% glutaraldehyde and stained with 1% methylene blue/toluidine blue in 1% borax. Morphological quantification of neurite or process lengths was performed as described in Mehanna et al. (2009), see above. Schwann cell processes and neurites of cerebellar neurons with a length of at least one cell body diameter were counted and total neurite or process length per cell was determined by counting 50 cells in each of two wells per experiment. At least three independent experiments were performed for each culture. Also, the activity of tegaserod with the PSA peptide mimic and the bacterial PSA analogue, colominic acid, on neurite and process extension experiments was compared.

[H]/N=C(/NCCCCC)N/N=C/c1c[nH]c2ccc(OC)cc12 [tegaserod, (E)-but-2-enedioic acid; 1-[[(Z)-(5-methoxyindol-3-ylidene)methyl]amino]-2-pentylguanidine]
disruption of the capability of mAb 735 to bind to the PSA peptide mimic bound to the chip surface [1]: 80% | effect on neurite outgrowth of cGNs (in words) [2]: significantly enhance neurite/process outgrowth compared to control

— patent publication EP2724723A1, “Tegaserod for use in the treatment of nerve injuries” (Universitätsklinikum Hamburg-Eppendorf, priority 2012, dated 2014)
